Earlier results in patent US4351830A (priority 1980, dated 1982).

Assays:
[1] = literature
bacterial infections = conditions: literature

CC(=O)N[C@H]1C(O)O[C@H](CO)[C@@H](O)[C@@H]1O[C@H](C)C(=O)N[C@@H](C)C(=O)N[C@H](CCC(=O)O)C(N)=O (stereo partly drawn) [N-acetylmuramyl-L-alanyl-D-isoglutamine]
adjuvant effect [1]: high adjuvant effect

CC(=O)N[C@H]1C(O)O[C@H](CO)[C@@H](O)[C@@H]1O[C@H](C)C(=O)N[C@@H](C)C(=O)N[C@H](CCC(N)=O)C(=O)O (stereo partly drawn) [N-acetylmuramyl-L-alanyl-D-glutamine]
adjuvant effect [1]: high adjuvant effect

orthobenzoic acid oxide
protective activity against bacterial infections (bacterial infections): exhibits a protective activity against bacterial infections
